Reference: ChEMBL document CHEMBL1153912, “Antiproliferative effects of peracetylated naphthoxylosides” (Bioorg Med Chem Lett, 2009)

What was measured:
[1] = Antiproliferative activity against human HFL1 cells after 96 hrs by crystal violet assay; type: cell-based; details: read-out: ED50
T-24 [2] = assay: Antiproliferative activity against human T24 cells after 96 hrs by crystal violet assay; type: functional; details: T-24, 96 h, read-out: ED50 (the source's name)
HFL1 = assay: Induction of glycosaminoglycan synthesis priming in human HFL1 cells assessed as ratio of fractions containing free glycosaminoglycan chains in drug to untreated control; type: cell-based; note: test concentration or dose not given here
T-24 [3] = assay: Induction of glycosaminoglycan synthesis priming in human T24 cells assessed as ratio of fractions containing free glycosaminoglycan chains in drug to untreated control; type: functional; note: test concentration or dose not given here

| SMILES | GI50 at 96 h [1] | EC50 (T-24 [2]) | Ratio (HFL1) | Ratio (T-24 [3]) |
| --- | --- | --- | --- | --- |
| CC(=O)Oc1cc(O[C@@H]2OC[C@@H](OC(C)=O)[C@H](OC(C)=O)[C@H]2OC(C)=O)cc2ccccc12 | 60 µM | 65 µM | 1 | 3.7 |
| CC(=O)Oc1ccc2cccc(O[C@@H]3OC[C@@H](OC(C)=O)[C@H](OC(C)=O)[C@H]3OC(C)=O)c2c1 | 80 µM | 170 µM | 6.2 | 8.2 |
| CC(=O)Oc1ccc2ccccc2c1O[C@@H]1OC[C@@H](OC(C)=O)[C@H](OC(C)=O)[C@H]1OC(C)=O | 65 µM | 170 µM | 0.6 | 0.5 |
| CC(=O)Oc1ccc2ccc(O[C@@H]3OC[C@@H](OC(C)=O)[C@H](OC(C)=O)[C@H]3OC(C)=O)cc2c1 | 85 µM | 190 µM | 2.2 | 6.5 |
| CC(=O)O[C@@H]1[C@@H](OC(C)=O)[C@H](Oc2ccc3cccc(O[C@@H]4OC[C@@H](OC(C)=O)[C@H](OC(C)=O)[C@H]4OC(C)=O)c3c2)OC[C@H]1OC(C)=O | 135 µM | 110 µM | 11.1 | 0.5 |
| CC(=O)Oc1cc2ccccc2cc1O[C@@H]1OC[C@@H](OC(C)=O)[C@H](OC(C)=O)[C@H]1OC(C)=O | 75 µM | 260 µM | 2.2 | 4.6 |
| CC(=O)Oc1ccc2cc(O[C@@H]3OC[C@@H](OC(C)=O)[C@H](OC(C)=O)[C@H]3OC(C)=O)ccc2c1 | 80 µM | 45 µM | 2.5 | 5.4 |
| CC(=O)O[C@@H]1[C@@H](OC(C)=O)[C@H](Oc2cccc3c(O[C@@H]4OC[C@@H](OC(C)=O)[C@H](OC(C)=O)[C@H]4OC(C)=O)cccc23)OC[C@H]1OC(C)=O | 10 µM | 170 µM | 5.4 | 6.9 |
| CC(=O)O[C@@H]1[C@@H](OC(C)=O)[C@H](Oc2ccc3ccccc3c2O[C@@H]2OC[C@@H](OC(C)=O)[C@H](OC(C)=O)[C@H]2OC(C)=O)OC[C@H]1OC(C)=O | 5 µM | 25 µM | 0.8 | 1.4 |
| CC(=O)Oc1cccc2cccc(O[C@@H]3OC[C@@H](OC(C)=O)[C@H](OC(C)=O)[C@H]3OC(C)=O)c12 | 110 µM | 205 µM | 0.8 | 2.4 |
| CC(=O)Oc1cccc2cc(O[C@@H]3OC[C@@H](OC(C)=O)[C@H](OC(C)=O)[C@H]3OC(C)=O)ccc12 | 100 µM | 65 µM | 1.3 | 6.9 |
| CC(=O)O[C@@H]1[C@@H](OC(C)=O)[C@H](Oc2ccc3cc(O[C@@H]4OC[C@@H](OC(C)=O)[C@H](OC(C)=O)[C@H]4OC(C)=O)ccc3c2)OC[C@H]1OC(C)=O | 55 µM | 320 µM | 15.5 | 8.2 |
| CC(=O)Oc1cccc2c(O[C@@H]3OC[C@@H](OC(C)=O)[C@H](OC(C)=O)[C@H]3OC(C)=O)cccc12 | 90 µM | 170 µM | 2.7 | 6.1 |
| CC(=O)Oc1cc(O[C@@H]2OC[C@@H](OC(C)=O)[C@H](OC(C)=O)[C@H]2OC(C)=O)c2ccccc2c1 | 20 µM | 25 µM | 2.2 | 4.5 |
| CC(=O)O[C@@H]1[C@@H](OC(C)=O)[C@H](Oc2cccc3cccc(O[C@@H]4OC[C@@H](OC(C)=O)[C@H](OC(C)=O)[C@H]4OC(C)=O)c23)OC[C@H]1OC(C)=O | 20 µM | 190 µM | 2.4 | 1.7 |
| CC(=O)Oc1cccc2ccc(O[C@@H]3OC[C@@H](OC(C)=O)[C@H](OC(C)=O)[C@H]3OC(C)=O)cc12 | 65 µM | 75 µM | 2.1 | 4.8 |
| CC(=O)Oc1ccc2c(O[C@@H]3OC[C@@H](OC(C)=O)[C@H](OC(C)=O)[C@H]3OC(C)=O)cccc2c1 | 80 µM | 110 µM | 1.8 | 6.4 |
| CC(=O)O[C@@H]1[C@@H](OC(C)=O)[C@H](Oc2cc(O[C@@H]3OC[C@@H](OC(C)=O)[C@H](OC(C)=O)[C@H]3OC(C)=O)c3ccccc3c2)OC[C@H]1OC(C)=O | 20 µM | 40 µM | 4.7 | 3.4 |
| CC(=O)O[C@@H]1[C@@H](OC(C)=O)[C@H](Oc2ccc3ccc(O[C@@H]4OC[C@@H](OC(C)=O)[C@H](OC(C)=O)[C@H]4OC(C)=O)cc3c2)OC[C@H]1OC(C)=O | 65 µM | 60 µM | 6.4 | 5.4 |
| CC(=O)Oc1c(O[C@@H]2OC[C@@H](OC(C)=O)[C@H](OC(C)=O)[C@H]2OC(C)=O)ccc2ccccc12 | 110 µM | 250 µM | 1.8 | 7.1 |
| CC(=O)O[C@@H]1[C@@H](OC(C)=O)[C@H](Oc2ccc3c(O[C@@H]4OC[C@@H](OC(C)=O)[C@H](OC(C)=O)[C@H]4OC(C)=O)cccc3c2)OC[C@H]1OC(C)=O | 160 µM | 100 µM | 12.7 | 8.8 |
| CC(=O)O[C@@H]1[C@@H](OC(C)=O)[C@H](Oc2ccc(O[C@@H]3OC[C@@H](OC(C)=O)[C@H](OC(C)=O)[C@H]3OC(C)=O)c3ccccc23)OC[C@H]1OC(C)=O | 15 µM | 140 µM | 13.6 | 8 |
| CC(=O)O[C@@H]1[C@@H](OC(C)=O)[C@H](Oc2cc3ccccc3cc2O[C@@H]2OC[C@@H](OC(C)=O)[C@H](OC(C)=O)[C@H]2OC(C)=O)OC[C@H]1OC(C)=O | 30 µM | 220 µM | 2.8 | 4.2 |
| CC(=O)Oc1ccc(O[C@@H]2OC[C@@H](OC(C)=O)[C@H](OC(C)=O)[C@H]2OC(C)=O)c2ccccc12 | 80 µM | 130 µM | 4.8 | 9 |
